Reference: paper PMC7957917 (ACS Medicinal Chemistry Letters, 2021)
Several values for one entry are separate records, joined by “and”; a condition that tells them apart may be missing. Equal entries are not always repeated. Where two headings read alike, the source gives them in different places.

What was measured:
[1] = system: ICR mice; test: Acute toxicity study in mice; details: ip, HCl salts, four mice per group, doses 2.5, 5, 10, 15 mg/kg every 24 h
[2] = system: ICR mice; details: ip, cited from earlier work; for tolerated dose: four mice per group
[3] = system: rats; test: Tolerability after intravenous treatment of rats; details: 1 mg/kg iv, three rats
[4] = system: RSV A2 strain; test: Multicycle replication of RSV in A549 cells; type: cell-based, respiratory syncytial virus
[5] = Pharmacokinetic characterization in rats; type: in vivo, Sprague Dawley rats; details: rat, ip, 2.5 mg/kg
[6] = system: DENV-2 (strain 16681); details: Huh-7 cells, 48 h postinfection
[7] = system: WNV (strain New York 99); details: Huh-7 cells, 48 h postinfection
[8] = system: SARS-CoV-2; details: infected Calu-3 cells; cited from earlier work

In the case of `CC(C)(C)[C@H](NC(=O)[C@H](CCONC(=N)N)NC(=O)Cc1ccc(CN)cc1)C(=O)N[C@@H](CCCCN)C(=O)NCc1ccc(C(=N)N)cc1` [Inhibitor 5], the tolerated dose [1] is reported as 15 mg/kg.
In the case of `CC(C)(C)[C@H](NC(=O)[C@H](CCCNC(=N)N)NC(=O)Cc1ccc(CNC(=N)N)cc1)C(=O)N[C@@H](CCCCN)C(=O)NCc1ccc(C(=N)N)cc1` [Inhibitor 2], the “number of deaths at next higher dose” value ([2]; at 10 mg/kg) is listed as 4 of 4 at 10 mg/kg and the tolerated dose [2] is listed as 5 mg/kg.
In the case of `CC(C)(C)[C@H](NC(=O)[C@H](CCCNC(=N)N)NC(=O)Cc1ccc(CNC(=N)N)cc1)C(=O)N[C@@H](CCCNC(=N)N)C(=O)NCc1ccc(C(=N)N)cc1` [Inhibitor 1], the “tolerability after iv treatment” value [3] is listed as “two of three rats died within 90 min”, the “number of deaths at next higher dose” value ([2]; at 5 mg/kg) is listed as “all mice died and 4 of 4 at 5 mg/kg” and the tolerated dose [2] is listed as 2.5 mg/kg.
In the case of `CC(C)(C)[C@H](NC(=O)[C@H](CCONC(=N)N)NC(=O)Cc1ccc(CNC(=N)N)cc1)C(=O)N[C@@H](CCONC(=N)N)C(=O)NCc1ccc(C(=N)N)cc1` [Inhibitor 8], the “RSV inhibition compared with reference inhibitor 1 (viral titers)” value ([4]; MOI 1, 0.1-10 µM inhibitor, 16-72 h post infection) is reported as “strongest antiviral efficacy”, the “inhibition of RSV replication at 10 µM” value ([4]; initial tests, 10 µM) is reported as “complete inhibition of virus replication” and the “tolerability after iv treatment” value [3] is reported as “well-accepted in all three rats without any signs of side effects”. For the same compound, the “period with plasma levels >1000 ng/mL (∼1.3 μM)” value [5] was “approximately 3 h”, the “antiviral potency against DENV-2 (virus titers)” value [6] was “significant antiviral potency” and the “antiviral potency against WNV (virus titers)” value [7] was “significant antiviral potency”. For the same compound, the “reduction of SARS-CoV-2 replication” value [8] was “significant reduction of the SARS-CoV-2 replication” and the tolerated dose [1] was 15 mg/kg.
